Data published in PubChem BioAssay (NCI).
Where “and” joins values, the source holds several entries; their conditions need not be identical. Equal values may be shown once.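 96-well plates; 48 h exposure; 5 concentrations. Endpoints by linear interpolation between flanking doses. Not reached: highest tested concentration assigned. GI50 marks 50% less growth. TGI marks complete inhibition of growth.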

test system: SR leukemia; experiment: growth of human tumour cells (NCI), 48 h

Compound	TGI	GI50
CCNC(=O)/C(=C/c1ccc(OC)cc1)c1cc(OC)c(OC)c(OC)c1	> 100 µM	–
Cc1ccc(OCCOCCOCCOCCOc2ccc(C)n(O)c2=S)c(=S)n1O	> 100 µM	0.0616 µM
COc1ccc(-c2ccc3c(N4CCOC[C@@H]4C)nc(N4CCOC[C@@H]4C)nc3n2)cc1CO	> 100 µM	0.00529 µM and 0.027 µM
N[C@H](CCC(=O)N[C@@H](Cc1c[nH]c2ccccc12)C(=O)O)C(=O)O	> 100 µM	> 100 µM
COc1ccc(-c2nc(-c3cc(OC)cc(OC)c3)[nH]c2-c2ccc(OC)cc2)cc1	8.74 µM	2.43 µM
CN(C)CCNCCN	> 100 µM	–
COC(=O)c1cc2c(o1)-c1nccc3c1c(nc1ccccc13)C2=O	2.51 µM	0.519 µM
Nc1ccccc1O.O.O=C(O)C1[O][Sb][O]C1C(=O)O (stereo not given)	50.6 µM	2.42 µM
O=C(c1ccco1)c1c(C(F)(F)F)n([O-])c2ccc(C(F)(F)F)cc2[n+]1=O	0.408 µM	0.127 µM
OC(c1cc(-c2ccc(C(F)(F)F)cc2)nc(C(F)(F)F)c1)C1CCCCN1 (stereo not given)	2.17 µM and 4.69 µM	0.362 µM
CCCCCCCCCCNC(=O)CI	0.64 µM	0.204 µM
CCc1ccc2c(c1)C(=O)c1c-2n(CCCN=[N+]=[N-])c(=O)c2cc([N+](=O)[O-])ccc12	> 50 µM	> 50 µM
Cc1cc(N/N=C/c2ccccn2)nc2ccccc12	5 µM	0.308 µM
CC1CC(O)C(=O)C(O[C@@H]2C[C@@H]3CC[C@@H]4[C@H](CC[C@]5(C)C(C6=CC(=O)OC6)CC[C@]45O)[C@@]3(C=O)C[C@H]2O)O1 (stereo not given in full)	0.0792 µM	–

test system: SF-268 CNS; experiment: growth of human tumour cells (NCI), 48 h

Compound	GI50	TGI
O=C1CCCN1c1ccccc1I(=O)=O	> 100 µM	> 100 µM
COC(=O)C1=COC(C)C2CN3CCc4c([nH]c5ccccc45)C3CC12 (stereo not given)	–	> 100 µM
O=C(NCc1ccc(Cn2c(=O)sn(-c3ccccc3)c2=O)cc1)OCc1ccc2cccc(O)c2n1	1.55 µM	3.04 µM
COC(c1ccc(C(C)(C)C)cc1)(c1ccc(C(C)(C)C)cc1)c1ccc(C(C)(C)C)cc1	–	> 100 µM
CC(C)c1[nH]nc2c1N=C(c1ccccc1Cl)c1cc([N+](=O)[O-])ccc1N2	7.92 µM	> 25 µM
Nc1cc2c(cc1Br)[nH]c(=O)c1ccccc12	5.9 µM	44.9 µM
COc1ccc(-c2nccn2-c2ccc(OC)cc2)cc1	22.9 µM	74.4 µM
O=C(/C=C/c1ccccc1)c1ccccc1	–	> 10 µM
COc1cc2c(/C=N\N=C(N)N)c[nH]c2cc1C	12.5 µM	28.7 µM
CC(C)[C@H](O)C(=O)N[C@@H](C)C(=O)N[C@@H]1C(=O)N(C)CCc2ccccc21	> 100 µM	> 100 µM
C=CC(=O)N1CN(C(=O)C=C)CN(C(=O)C=C)C1	11 µM	50.6 µM
ClC(Cl)=C1C(=C(Cl)Cl)C(Cl)(Cl)C1(Cl)Cl	–	9.22 µM
C#CCOc1cccc(Nc2ncnc3c(NC(=O)C=C)cccc23)c1	27.7 µM	> 100 µM
CO[C@H]1Nc2c(ccc(C)c2O)C(=O)N2C=C(/C=C/C(N)=O)C[C@@H]12	–	0.411 µM
O=C(/C(=C\c1c(-c2ccccc2)[nH]c2ccccc12)S(=O)(=O)c1ccccc1)c1ccccc1	> 100 µM	> 100 µM
CCNC(=O)/C(=C/c1ccc(OC)cc1)c1cc(OC)c(OC)c(OC)c1	–	> 100 µM
Cc1ccc(OCCOCCOCCOCCOc2ccc(C)n(O)c2=S)c(=S)n1O	0.0482 µM	> 100 µM
COc1ccc(-c2ccc3c(N4CCOC[C@@H]4C)nc(N4CCOC[C@@H]4C)nc3n2)cc1CO	0.00537 µM and 0.0359 µM	> 3.31 µM and 51.1 µM
N[C@H](CCC(=O)N[C@@H](Cc1c[nH]c2ccccc12)C(=O)O)C(=O)O	> 100 µM	> 100 µM
COc1ccc(-c2nc(-c3cc(OC)cc(OC)c3)[nH]c2-c2ccc(OC)cc2)cc1	> 100 µM	> 100 µM
CN(C)CCNCCN	–	> 100 µM
COC(=O)c1cc2c(o1)-c1nccc3c1c(nc1ccccc13)C2=O	2.82 µM	24.2 µM
Nc1ccccc1O.O.O=C(O)C1[O][Sb][O]C1C(=O)O (stereo not given)	17.5 µM	> 53.4 µM
O=C(c1ccco1)c1c(C(F)(F)F)n([O-])c2ccc(C(F)(F)F)cc2[n+]1=O	0.266 µM	0.674 µM
OC(c1cc(-c2ccc(C(F)(F)F)cc2)nc(C(F)(F)F)c1)C1CCCCN1 (stereo not given)	1.85 µM and 3.76 µM	3.46 µM and 13.1 µM
CCCCCCCCCCNC(=O)CI	1.86 µM	3.65 µM
CCc1ccc2c(c1)C(=O)c1c-2n(CCCN=[N+]=[N-])c(=O)c2cc([N+](=O)[O-])ccc12	> 50 µM	> 50 µM
Cc1cc(N/N=C/c2ccccn2)nc2ccccc12	0.44 µM	15.3 µM
CC1CC(O)C(=O)C(O[C@@H]2C[C@@H]3CC[C@@H]4[C@H](CC[C@]5(C)C(C6=CC(=O)OC6)CC[C@]45O)[C@@]3(C=O)C[C@H]2O)O1 (stereo not given in full)	–	0.146 µM

test system: SW-620 colon; experiment: growth of human tumour cells (NCI), 48 h

Compound	GI50	TGI
O=C1CCCN1c1ccccc1I(=O)=O	> 100 µM	> 100 µM
COC(=O)C1=COC(C)C2CN3CCc4c([nH]c5ccccc45)C3CC12 (stereo not given)	22.8 µM and > 100 µM	75.7 µM and > 100 µM
O=C(NCc1ccc(Cn2c(=O)sn(-c3ccccc3)c2=O)cc1)OCc1ccc2cccc(O)c2n1	0.301 µM	0.951 µM
COC(c1ccc(C(C)(C)C)cc1)(c1ccc(C(C)(C)C)cc1)c1ccc(C(C)(C)C)cc1	–	> 100 µM
CC(C)c1[nH]nc2c1N=C(c1ccccc1Cl)c1cc([N+](=O)[O-])ccc1N2	2.2 µM	> 25 µM
Nc1cc2c(cc1Br)[nH]c(=O)c1ccccc12	7.73 µM	29 µM
COc1ccc(-c2nccn2-c2ccc(OC)cc2)cc1	25 µM	> 100 µM
O=C(/C=C/c1ccccc1)c1ccccc1	–	> 10 µM
COc1cc2c(/C=N\N=C(N)N)c[nH]c2cc1C	16.1 µM	29.6 µM
CC(C)[C@H](O)C(=O)N[C@@H](C)C(=O)N[C@@H]1C(=O)N(C)CCc2ccccc21	> 100 µM	> 100 µM
C=CC(=O)N1CN(C(=O)C=C)CN(C(=O)C=C)C1	2.16 µM	5.16 µM
ClC(Cl)=C1C(=C(Cl)Cl)C(Cl)(Cl)C1(Cl)Cl	–	3.75 µM
C#CCOc1cccc(Nc2ncnc3c(NC(=O)C=C)cccc23)c1	25.8 µM	> 100 µM
CO[C@H]1Nc2c(ccc(C)c2O)C(=O)N2C=C(/C=C/C(N)=O)C[C@@H]12	–	17.7 µM
CCNC(=O)/C(=C/c1ccc(OC)cc1)c1cc(OC)c(OC)c(OC)c1	–	> 100 µM
Cc1ccc(OCCOCCOCCOCCOc2ccc(C)n(O)c2=S)c(=S)n1O	< 0.0127 µM	> 100 µM
COc1ccc(-c2ccc3c(N4CCOC[C@@H]4C)nc(N4CCOC[C@@H]4C)nc3n2)cc1CO	0.0078 µM and 0.0537 µM	> 100 µM
N[C@H](CCC(=O)N[C@@H](Cc1c[nH]c2ccccc12)C(=O)O)C(=O)O	> 100 µM	> 100 µM
COc1ccc(-c2nc(-c3cc(OC)cc(OC)c3)[nH]c2-c2ccc(OC)cc2)cc1	54.1 µM	> 100 µM
CN(C)CCNCCN	–	> 100 µM
COC(=O)c1cc2c(o1)-c1nccc3c1c(nc1ccccc13)C2=O	3.78 µM	17.5 µM
Nc1ccccc1O.O.O=C(O)C1[O][Sb][O]C1C(=O)O (stereo not given)	4.48 µM	31.2 µM
O=C(c1ccco1)c1c(C(F)(F)F)n([O-])c2ccc(C(F)(F)F)cc2[n+]1=O	0.159 µM	0.338 µM
OC(c1cc(-c2ccc(C(F)(F)F)cc2)nc(C(F)(F)F)c1)C1CCCCN1 (stereo not given)	–	3.33 µM and 3.36 µM
CCCCCCCCCCNC(=O)CI	1.77 µM	3.65 µM
CCc1ccc2c(c1)C(=O)c1c-2n(CCCN=[N+]=[N-])c(=O)c2cc([N+](=O)[O-])ccc12	> 50 µM	> 50 µM
